Experimental data: article PMC8699473, “An Easily Expandable Multi-Drug LC-MS Assay for the Simultaneous Quantification of 57 Oral Antitumor Drugs in Human Plasma” (Cancers, 2021)
“And” between values parts separate entries of the source, which are not always exact repeats. Identical values can stand only once.

Key:
[1] = Plasma concentrations in patients on oral antitumor therapy (LC-MS); assay type: in vivo, human; conditions: for Measured plasma concentration: 24 h
Text: The liquid chromatography-mass spectrometer system consisted of a Thermo Scientific Dionex UltiMate^TM 3000 with an integrated and temperature controlled autosampler (Thermo Fisher Scientific, Dreieich, Germany). An Acquity UPLC® BEH C18 column (2.1 × 100 mm, 1.7 µm; Waters, Milford, CT, USA) equipped with an Acquity UPLC® BEH C18 VanGuard^TM Pre-Column (2.1 × 5 mm, 1.7 µm; Waters, Milford, CT, USA) was used for chromatographic separation. The Q-Exactive^TM Focus mass spectrometer (MS) was hyphenated with a heated electrospray ionization (HESI) source (both from Thermo Fisher Scientific, Dreieich, Germany).
Chromatographic separation was achieved using a gradient elution with water containing 0.5% (v/v) FA (eluent A) and MeOH with 0.1% (v/v) FA (eluent B). The injection volume was 5 µL. The gradient program is shown in Supplement Table S2. The flow rate was 0.5 mL/min with a total run time of 15 min. The column heater was maintained at 50 °C and the autosampler temperature was 4 °C.
The following MS and HESI settings were maintained for all analyses: Sheath gas, auxiliary gas, and sweep gas flow rates were set to 60, 20, and 0, respectively. The spray voltage was 4000 V. Both capillary and auxiliary gas heater temperatures were set to 400 °C. High-purity nitrogen gas was used for the HESI source gases and for the bath gas of the C-trap. […] The HESI source was configured in positive mode for ionization.
The stock solutions were stored in glass vials at −80 °C. Aliquots of all stock solutions were combined in ACN (volumes of individual stock solution solvents are negligible) to obtain a standard solution of all analytes with an individual concentration of 200% of the respective trough level (cmin). Eight individual working standards were prepared by stepwise dilution of this standard solution with concentrations from 10 to 200% cmin (shown in Supplement Table S3). Furthermore, the four individual IS stock solutions were combined and diluted to 50 ng/mL with ACN. Calibration and validation standards were prepared by spiking 50 µL pooled human plasma with 10 µL of the respective working solution. Next, 250 µL IS solution (50 ng/mL in ACN) were added and vortexed vigorously. […] Then, 100 µL supernatant were transferred to 300 µL HPLC insert glass vials and diluted with 100 µL eluent (90% A/10% B). For blank samples, 50 µL pooled human plasma were combined with 10 µL ACN (instead of working solution) and prepared as described above. The calibration and validation standards were freshly prepared before every run. Patient plasma samples were prepared as calibration and validation standards (no additional processing step necessary), except for adding 10 µL ACN instead of 10 µL working standard. Before sample preparation, the frozen plasma samples were thawed in absence of light at 4 °C.
Blood samples were collected over the entire dosing interval from patients treated with an oral anticancer drug as listed in Supplement Table S4. […] A maximum of two samples at two different time points throughout the entire dosing interval were collected per patient. Treatment duration before collection was at least five half-lives (depending on the specific oral anticancer drug). The samples were collected in K3-EDTA tubes.
A total of 71 blood samples from 39 patients treated with 14 different oral anticancer drugs were collected (see Supplement Table S4 for details). All patients were recruited from independent outpatient clinics associated with the Comprehensive Cancer Center of the University Hospital Erlangen (CCC Erlangen-EMN). Of 71 blood samples, 41 were taken ±4 h of trough level (cmin).

[2] = Freeze-thaw stability in spiked pooled human plasma; assay type: physicochemical
[3] = Autosampler stability of ready for injection samples; assay type: physicochemical, human
[4] = design: method as in supplement references [1-55] as printed per drug; conditions: minimum steady-state blood plasma concentration after multiple dose administration; ref supplement references [1-55] per drug; cited from earlier work
[5] = Long-term stability in spiked pooled human plasma
[6] = Short-term stability in spiked pooled human plasma (bench-top, 4 °C, 56 °C)

COc1cc2nccc(Oc3ccc(NC(=O)C4(C(=O)Nc5ccc(F)cc5)CC4)cc3)c2cc1OC [Cabozantinib]
Measured plasma concentration ([1]; 20 mg/day, ±4 h of trough level: yes): 289.4 ng/mL and 291.0 ng/mL and 551.4 ng/mL | Measured plasma concentration ([1]; 40 mg/day, ±4 h of trough level: yes): 253.5 ng/mL | Measured plasma concentration ([1]; 60 mg/day, ±4 h of trough level: no): 1225.4 ng/mL and 700.9 ng/mL and 627.0 ng/mL | Measured plasma concentration ([1]; 40/60 mg/day, ±4 h of trough level: yes): 445.6 ng/mL and 562.2 ng/mL | Interpatient Coefficient of Variation [%] ([1]; patient plasma concentrations): 58.5% | Median Concentration of All Samples [% of r.c.] ([1]; patient plasma, all samples, r.c. = respective cmin): 153.3 % of r.c. | Freeze-Thaw Accuracy [%] ([2]; validation standard 2xLLOV): 99.6% | Freeze-Thaw Accuracy [%] ([2]; validation standard LLOV): 90.2% | Freeze-Thaw Accuracy [%] ([2]; validation standard MOV): 102.2% | Freeze-Thaw Accuracy [%] ([2]; validation standard ULOV): 95.0% | Autosampler (72h, 4°C) Accuracy [%] ([3]; validation standard 2xLLOV): 103.4% | Autosampler (24h, 4°C) Accuracy [%] ([3]; validation standard LLOV): 92.0% | Autosampler (72h, 4°C) Accuracy [%] ([3]; validation standard LLOV): 94.0% | Autosampler (24h, 4°C) Accuracy [%] ([3]; validation standard MOV): 105.6% | Autosampler (72h, 4°C) Accuracy [%] ([3]; validation standard MOV): 103.5% | Autosampler (24h, 4°C) Accuracy [%] ([3]; validation standard ULOV): 98.7% | cmin [4]: 1380 ng/mL | Long-term stability, 1 month, -20°C Accuracy [%] ([5]; validation standard 2xLLOV): 98.4% | Long-term stability, 1 month, -80°C Accuracy [%] ([5]; validation standard 2xLLOV): 92.5% | Long-term stability, 2 month, -80°C Accuracy [%] ([5]; validation standard 2xLLOV): 100.3% | Long-term stability, 3 month, -20°C Accuracy [%] ([5]; validation standard 2xLLOV): 92.5% | Long-term stability, 3 month, -80°C Accuracy [%] ([5]; validation standard 2xLLOV): 94.6% | Long-term stability, 6 weeks, 4°C, without daylight Accuracy [%] ([5]; validation standard 2xLLOV): 96.8% | Long-term stability, 1 month, -20°C Accuracy [%] ([5]; validation standard LLOV): 91.9% | Long-term stability, 1 month, -80°C Accuracy [%] ([5]; validation standard LLOV): 89.4% | Long-term stability, 2 month, -20°C Accuracy [%] ([5]; validation standard LLOV): 97.7% | Long-term stability, 2 month, -80°C Accuracy [%] ([5]; validation standard LLOV): 100.2% | Long-term stability, 3 month, -20°C Accuracy [%] ([5]; validation standard LLOV): 90.4% | Long-term stability, 3 month, -80°C Accuracy [%] ([5]; validation standard LLOV): 91.8% | Long-term stability, 6 weeks, 4°C, without daylight Accuracy [%] ([5]; validation standard LLOV): 94.1% | Long-term stability, 1 month, -20°C Accuracy [%] ([5]; validation standard MOV): 97.7% | Long-term stability, 1 month, -80°C Accuracy [%] ([5]; validation standard MOV): 97.3% | Long-term stability, 2 month, -20°C Accuracy [%] ([5]; validation standard MOV): 101.6% | Long-term stability, 2 month, -80°C Accuracy [%] ([5]; validation standard MOV): 102.9% | Long-term stability, 3 month, -20°C Accuracy [%] ([5]; validation standard MOV): 100.0% | Long-term stability, 3 month, -80°C Accuracy [%] ([5]; validation standard MOV): 98.9% | Long-term stability, 6 weeks, 4°C, without daylight Accuracy [%] ([5]; validation standard MOV): 108.5% | Long-term stability, 1 month, -20°C Accuracy [%] ([5]; validation standard ULOV): 95.7% | Long-term stability, 1 month, -80°C Accuracy [%] ([5]; validation standard ULOV): 93.1% | Long-term stability, 2 month, -20°C Accuracy [%] ([5]; validation standard ULOV): 99.6% | Long-term stability, 2 month, -80°C Accuracy [%] ([5]; validation standard ULOV): 100.3% | Long-term stability, 3 month, -20°C Accuracy [%] ([5]; validation standard ULOV): 96.3% | Long-term stability, 3 month, -80°C Accuracy [%] ([5]; validation standard ULOV): 93.1% | Long-term stability, 6 weeks, 4°C, without daylight Accuracy [%] ([5]; validation standard ULOV): 101.8% | Short-time stability (1h, 56°C) Accuracy [%] ([6]; validation standard 2xLLOV): 49.1% | Short-time stability (24h, 4°C, without daylight) Accuracy [%] ([6]; validation standard 2xLLOV): 101.8% | Short-time stability (24h, RT, with daylight) Accuracy [%] ([6]; validation standard 2xLLOV): 103.6% | Short-time stability (1h, 56°C) Accuracy [%] ([6]; validation standard LLOV): 30.2% | Short-time stability (24h, 4°C, without daylight) Accuracy [%] ([6]; validation standard LLOV): 98.5% | Short-time stability (24h, RT, with daylight) Accuracy [%] ([6]; validation standard LLOV): 91.8% | Short-time stability (1h, 56°C) Accuracy [%] ([6]; validation standard MOV): 51.8% | Short-time stability (24h, 4°C, without daylight) Accuracy [%] ([6]; validation standard MOV): 102.2% | Short-time stability (24h, RT, with daylight) Accuracy [%] ([6]; validation standard MOV): 104.9% | Short-time stability (1h, 56°C) Accuracy [%] ([6]; validation standard ULOV): 44.1% | Short-time stability (24h, 4°C, without daylight) Accuracy [%] ([6]; validation standard ULOV): 96.1%
